Source: US11826364B2, “Treatment for epilepsy” (Katholieke Universiteit Leuven, priority 2017, dated 2023)

What was measured:
[1] = tested on: zebrafish larvae; test: Toxicity evaluation, maximum tolerated concentration (MTC) in zebrafish larvae; assay type: in vivo, zebrafish (Danio rerio); details: highest concentration without death, toxicity or locomotor impairment
Protocol: Maximum tolerated concentration (MTC) was determined prior to further experiments and used as the highest test concentration. Experiments were described as described in Copmans et al. (2018) ACS chemical neuroscience. MTC was investigated by exposing 12 larvae of 6 dpf to a range of concentrations in a 100 μl volume during 18 hours. The following parameters were investigated after 2 and 18 hours of exposure: touch response, morphology, posture, edema, signs of necrosis, swim bladder, and heartbeat.

[2] = tested on: NMRI mice; test: Mouse 6-Hz (44 mA) psychomotor seizure model; assay type: in vivo; details: 30 min before stimulation; for mean seizure duration (±SD): Example 8; for mean seizure duration: Example 7
Protocol: Experiments were performed as described in Copmans et al. (2018) ACS chemical neuroscience. […] Mice were manually restrained and a drop of ocular anesthetic (0.5% lidocaine) was applied to the corneas before stimulation. Following electrical current stimulation, the mouse was released in a transparent cage for behavioral observation, which was video-recorded. […] In addition, facial and mouth jerking as well as head nodding were observed occasionally. Seizure durations were measured during the experiment by experienced researchers, familiar with the different seizure behaviors. In addition, seizure durations were determined by blinded video analysis to confirm or correct the initial observations. Data are expressed as mean±SD.

[3] = tested on: zebrafish larvae; test: Non-invasive local field potential (LFP) recordings from the optic tectum, zebrafish PTZ seizure model; assay type: in vivo, zebrafish (Danio rerio); details: MTC (20 μg/mL); 2 hours incubation; 10 min recording
Protocol: Non-invasive LFP recordings were measured from the midbrain (optic tectum) of 7 dpf zebrafish larvae pre-incubated with VHC only, PTZ only, compound and VHC, or compound and PTZ. Experiments were performed as described in Copmans et al. (2018) Neurochem. Int. 112, 124-133;
Copmans (2018) ACS chemical neuroscience. In brief, larvae were incubated for approximately 2 hours with VHC (1% DMSO) or test compound (1% DMSO) in a 100 μL volume. After incubation, an equal volume of VHC (embryo medium) or 40 mM PTZ (20 mM working concentration) was added to the well for 15 minutes prior to recording. These steps occurred at 28° C., while further manipulation and electrophysiological recordings occurred at room temperature (±21° C.). The larva was embedded in 2% low melting point agarose (Invitrogen) and the signal electrode (an electrode inside a soda-glass pipet (1412227, Hilgenberg) pulled with a DMZ Universal Puller (Zeitz, Germany), diameter±20 microns, containing artificial cerebrospinal fluid (ACSF: 124 mM NaCl, 10 mM glucose, 2 mM KCl, 2 mM MgSO4, 2 mM CaCl2, 1.25 mM KH2PO4, and 26 mM NaHCO3, 300-310 mOsmols)) was positioned on the skin covering the optic tectum. A differential extracellular amplifier (DAGAN, USA) amplified the voltage difference between the signal (measured by the signal electrode) and the reference electrode. The differential signal was band pass filtered at 0.3-300 Hz and digitized at 2 kHz via a PCI-6251 interface (National instruments, UK) using WinEDR (John Dempster, University of Strathclyde, UK). A grounding electrode grounded the electrical system. All electrodes were connected with ACSF. Each recording lasted 600 seconds. Manual analysis was completed by quantification of the number, cumulative duration, and mean duration of epileptiform-like events with Clampfit 10.2 software (Molecular Devices Corporation, USA). An electrical discharge was considered epileptiform if it was a poly-spiking event comprising at least 3 spikes with a minimum amplitude of three times the baseline amplitude and a duration of at least 100 milliseconds. Data are expressed as mean±SD.

[4] = Solubility in the injection solvent (PEG200:DMSO 1:1); assay type: physicochemical; details: 20 mg/kg dose
Protocol: For experiments with zebrafish larvae, dry samples and compounds were dissolved in 100% dimethyl sulfoxide (DMSO, spectroscopy grade) as 100-fold concentrated stocks and diluted in embryo medium to a final concentration of 1% DMSO content, except for PTZ which was dissolved in embryo medium (0% DMSO). Control groups were treated with 1% DMSO (VHC) in accordance with the final solvent concentration of tested samples or compounds. For mice experiments, a mixture of poly-ethylene glycol M.W. 200 (PEG200) and 100% DMSO (spectroscopy grade) (1:1 PEG200:DMSO) was used as solvent and VHC. Pentylenetetrazole and valproate were purchased from Sigma-Aldrich.

[5] = tested on: zebrafish larvae; test: Zebrafish pentylenetetrazole (PTZ) seizure model, behavioral analysis; assay type: in vivo, zebrafish (Danio rerio); details: 2 hours incubation; for antiseizure activity at lower concentrations: MTC/2 and MTC/4
Protocol: Experiments were performed as [Add references please: Copmans (2018), ACS chemical neuroscience; Copmans et al. (2018) Neurochem. Int. 112, 124-133; Afrikanova et al. (2013) PLoS One 8, e54166; Orellana-Paucar et al. (2012) Epilepsy Behav 24, 14-22]. In brief, a single 7 dpf larva was placed in each well of a 96-well plate and treated with either VHC (1% DMSO) or test compound in a 100 μl volume. Larvae were incubated in dark for 2 hours at 28° C., whereafter 100 μl of either VHC (embryo medium) or 40 mM PTZ (20 mM working concentration) was added to each well. Next, within 5 minutes the 96-well plate was placed in an automated tracking device (ZebraBox Viewpoint, France) and larval behavior was video recorded for 30 minutes. The complete procedure was performed in dark conditions using infrared light. Total locomotor activity was recorded by ZebraLab software (Viewpoint, France) and expressed in actinteg units, which is the sum of pixel changes detected during the defined time interval (5 minutes). Larval behavior was depicted as mean actinteg units per 5 minutes in the 30 minute recording period and over consecutive time intervals. Data are expressed as mean±SD for single experiments with regards to screening, and as mean±SEM for single experiments and for independent experiments of which the means or data are pooled.
In the first secondary screen three replicate wells were used per sample (100 μg/mL) tested and each experimental plate contained 12 internal control wells. In the second secondary screen six replicate wells were used per sample and concentration tested (100, 33, and 11 μg/mL), again 12 internal control wells were used per experimental plate.

Row | SMILES | maximum tolerated concentration (MTC) [1] [µg/mL] | mean seizure duration (±SD) ([2]; 2.5 mg/kg i.p.) [s] | mean seizure duration (±SD) ([2]; 5 mg/kg i.p.) [s] | mean seizure duration (±SD) ([2]; 10 mg/kg i.p.) [s] | cumulative duration of PTZ-induced epileptiform events [3] | number of PTZ-induced epileptiform events [3] | solubility in the solvent [4] | antiseizure activity at lower concentrations [5] | PTZ-induced seizure behavior in 5 min time intervals ([5]; at MTC) | PTZ-induced seizure behavior in the 30 min recording period ([5]; at MTC) | PTZ-induced seizure behavior in 5 min time intervals ([5]; at the tested concentration) | also measured
1 | Cc1cc2ccc3c(c2cn1)OC(C(C)C)C3=O (stereo not shown) [TMC-120A] | 20 | 13 | 20 | 17 | significantly lowered | significantly lowered | poor solubility | No significant antiseizure activity | significant reduction | not TMC-120A, significantly lowered |  | mean seizure duration (±SD) ([2]; 1.25 mg/kg i.p.): 15 s; percentage of larvae with PTZ-induced epileptiform activity [3]: significantly lowered the percentage of larvae with PTZ-induced epileptiform activity by more than half
2 | CC(C)=C1Oc2c(ccc3cc(C)ncc23)C1=O [TMC-120B] | 20 | 27 | 23.5 | 10 | significantly lowered | significantly lowered | poor solubility | No significant antiseizure activity | significant reduction | significantly lowered |  | mean seizure duration ([2]; 2.5 mg/kg i.p.): 27 s; mean seizure duration ([2]; 5 mg/kg i.p.): 23.5 s; mean seizure duration ([2]; 10 mg/kg i.p.): 10 s; mean seizure duration ([2]; 20 mg/kg i.p.): 27.5 s; mean seizure duration (±SD) ([2]; 20 mg/kg i.p.): 27.5 s
3 | Cc1cc2ccc3c(c2cn1)OC(O)(C(C)C)C3=O (stereo not shown) [TMC-120C] |  |  |  |  |  |  |  |  |  |  | significant reduction | PTZ-induced seizure behavior in the 30 min recording period ([5]; at the tested concentration): lowered PTZ-induced seizure behavior
4 | CC1=Cc2ccc3c(c2CO1)O[C@@H](C(C)C)C3=O [penicisochroman G] |  |  |  |  |  |  |  |  |  |  | significant reduction | 
5 | CC1=Cc2ccc3c(c2CO1)OC(=C(C)C)C3=O [ustusorane B] |  |  |  |  |  |  |  |  |  |  | significant reduction | 
